From patent US20080207708A1, “Oxazole and Thiazole Compounds and Their Use in the Treatment of Pge2 Mediated Disorders” (GLAXO GROUP LIMITED, priority 2005, published 2008)
Counter-ions that a name gives are not always drawn.

Biological target: T1, EP1 receptors (Homo sapiens, UniProt P34995)
T1 sequence (P34995 1-402): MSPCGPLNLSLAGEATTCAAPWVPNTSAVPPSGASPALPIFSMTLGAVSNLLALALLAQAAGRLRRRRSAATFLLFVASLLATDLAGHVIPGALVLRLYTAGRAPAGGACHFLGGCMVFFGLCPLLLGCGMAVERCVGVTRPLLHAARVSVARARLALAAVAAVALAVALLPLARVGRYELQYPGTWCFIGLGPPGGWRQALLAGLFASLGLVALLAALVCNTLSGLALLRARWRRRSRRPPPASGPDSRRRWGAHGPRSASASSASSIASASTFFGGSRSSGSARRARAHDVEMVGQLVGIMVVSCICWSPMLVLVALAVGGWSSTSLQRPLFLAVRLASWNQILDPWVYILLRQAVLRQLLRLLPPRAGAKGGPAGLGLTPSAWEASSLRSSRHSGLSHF
Test: Binding assay for the human prostanoid EP1 receptor (competition with [3H]-PGE2)
Set-up: expressed in transfected cells; host or cells: CHO-K1 cells, membrane fraction
Details: [3H]-PGE2 competition; averages of a number of experiments; read-out: pIC50 value, binding assay for the human prostanoid EP1 receptor (converted)
Procedure: Competition assay using [^3H]-PGE2.
Compound potencies are determined using a radioligand binding assay. In this assay compound potencies are determined from their ability to compete with tritiated prostaglandin E2 ([^3H]-PGE2) for binding to the human EP1 receptor.
This assay utilises Chinese hamster ovary-K1 (CHO-K1) cells into which a stable vector containing the EP1 cDNA has previously been transfected. Cells are cultured in suitable flasks containing culture medium such as DMEM:F-12 supplemented with 10% v/v foetal calf serum, 2 mM L-glutamine, 0.25 mg/ml geneticin, 10 μg/ml puromycin and 10 μM indomethacin.
Cells are detached from the culture flasks by incubation in calcium and magnesium free phosphate buffered saline containing 1 mM disodium ethylenediaminetetraacetic acid (Na2EDTA) and 10 μM indomethacin for 5 min. The cells are isolated by centrifugation at 250×g for 5mins and suspended in an ice cold buffer such as 50 mM Tris, 1 mM Na2EDTA, 140 mM NaCl, 10 μM indomethacin (pH 7.4). The cells are homogenised using a Polytron tissue disrupter (2×10 s burst at full setting), centrifuged at 48,000×g for 20mins and the pellet containing the membrane fraction is washed (optional) three times by suspension and centrifugation at 48,000×g for 20mins. The final membrane pellet is suspended in an assay buffer such as 10 mM 2-[N-morpholino]ethanesulphonic acid, 1 mM Na2EDTA, 10 mM MgCl2 (pH 6). Aliquots are frozen at […] until required.
For the binding assay the cell membranes, competing compounds and [^3H]-PGE2 (3 nM final assay concentration) are incubated in a final volume of 100 μl for 30 min at 30° C. All reagents are prepared in assay buffer. Reactions are terminated by rapid vacuum filtration over GF/B filters using a Brandell cell harvester. The filters are washed with ice cold assay buffer, dried and the radioactivity retained on the filters is measured by liquid scintillation counting in Packard TopCount scintillation counter.
The data are analysed using non linear curve fitting techniques to determine the concentration of compound producing 50% inhibition of specific binding (IC50).

Q: Which IC50 does the source give for O=C(O)Cc1csc(-c2cc(Cl)ccc2OCc2ccccc2Cl)n1 [Example 70, Sodium [2-(5-chloro-2-{[(2-chlorophenyl)methyl]oxy}phenyl)-1,3-thiazol-4-yl]acetate] here?
A: ≤ 1000 nM

Q: With O=C(O)Cc1csc(-c2cc(Cl)ccc2OCc2ccc(Cl)cc2)n1 [Example 71, Sodium [2-(5-chloro-2-{[(4-chlorophenyl)methyl]oxy}phenyl)-1,3-thiazol-4-yl]acetate] as the compound, how does the IC50 read?
A: ≤ 31.6 nM

Q: How did the IC50 turn out when O=C(O)Cc1csc(-c2cc(Cl)ccc2OCc2ccc(F)cc2)n1 [Example 72, Sodium [2-(5-chloro-2-{[(4-fluorophenyl)methyl]oxy}phenyl)-1,3-thiazol-4-yl]acetate] was run?
A: ≤ 1000 nM

Q: Which IC50 does the source give for O=C(O)Cc1csc(-c2cc(Cl)ccc2OCc2ccccc2)n1 [Example 73, Sodium [2-{5-chloro-2-[(phenylmethyl)oxy]phenyl}-1,3-thiazol-4-yl)acetate] here?
A: ≤ 31.6 nM

Q: With O=C(O)c1nc(Cc2cc(Cl)ccc2OCc2ccc(F)cc2F)cs1 [Example 74, Sodium 4-[(5-chloro-2-{[(2,4-difluorophenyl)methyl]oxy}phenyl)methyl]-1,3-thiazole-2-carboxylate] as the compound, how does the IC50 read?
A: ≤ 31.6 nM

Q: O=C(O)c1csc(Nc2cc(Cl)ccc2OCc2ccccc2)n1 [Example 75, Sodium 2-({5-chloro-2-[(phenylmethyl)oxy]phenyl}amino)-1,3-thiazole-4-carboxylate] was tested. Which IC50 did it give?
A: ≤ 1000 nM

Q: For O=C(O)c1nc(Cc2cc(Cl)ccc2OCc2ccccc2)cs1 [Example 76, Sodium 4-({5-chloro-2-[(phenylmethyl)oxy]phenyl}methyl)-1,3-thiazole-2-carboxylate], which IC50 is on record?
A: ≤ 31.6 nM

Q: With O=C(O)c1nc(Cc2cc(Cl)ccc2OCc2ccc(F)cc2)cs1 [Example 77, Sodium 4-[(5-chloro-2-{[(4-fluorophenyl)methyl]oxy}phenyl)methyl]-1,3-thiazole-2-carboxylate] as the compound, how does the IC50 read?
A: ≤ 31.6 nM

Q: Which IC50 does the source give for O=C(O)c1coc(Cc2cc(Cl)ccc2OCc2ccccc2)n1 [Example 78, Sodium 2-({5-chloro-2-[(phenylmethyl)oxy]phenyl}methyl)-1,3-oxazole-4-carboxylate] here?
A: ≤ 31.6 nM

Q: CC(C)COc1ccc(Cl)cc1C(F)(F)c1nc(C(=O)O)cs1 [Example 82, Sodium 2-[{5-chloro-2-[(2-methylpropyl)oxy]phenyl}(difluoro)methyl]-1,3-thiazole-4-carboxylate] was tested. Which IC50 did it give?
A: ≤ 1000 nM

Q: How did the IC50 turn out when O=C(O)c1nc(Cc2cc(Cl)ccc2OCc2ccccc2Cl)cs1 [Example 83, Sodium 4-[(5-chloro-2-{[(2-chlorophenyl)methyl]oxy}phenyl)methyl]-1,3-thiazole-2-carboxylate] was run?
A: ≤ 31.6 nM

Q: For O=C(O)c1nc(Cc2cc(Cl)ccc2OCc2ccccc2F)cs1 [Example 84, Sodium 4-[(5-chloro-2-{[(2-fluorophenyl)methyl]oxy}-phenyl)methyl]-1,3-thiazole-2-carboxylate], which IC50 is on record?
A: ≤ 31.6 nM

Q: For O=C(O)c1nc(Cc2cc(Cl)ccc2OCc2c(F)cc(F)cc2F)cs1 [Example 85, Sodium 4-[(5-chloro-2-{[(2,4,6-trifluorophenyl)methyl]-oxy}phenyl)methyl]-1,3-thiazole-2-carboxylate], which IC50 is on record?
A: ≤ 31.6 nM

Q: With O=C(O)c1nc(Cc2cc(Cl)ccc2OCc2ccc(Cl)cc2)cs1 [Example 86, Sodium 4-[(5-chloro-2-{[(4-chlorophenyl)methyl]-oxy}phenyl)methyl]-1,3-thiazole-2-carboxylate] as the compound, how does the IC50 read?
A: ≤ 31.6 nM

Q: With O=C(O)c1nc(Cc2cc(Cl)ccc2OCc2ccc(F)cc2Cl)cs1 [Example 87, Sodium 4-[(5-chloro-2-{[(2-chloro-4-fluorophenyl)methyl]oxy}-phenyl)methyl]-1,3-thiazole-2-carboxylate] as the compound, how does the IC50 read?
A: ≤ 31.6 nM

Q: For O=C(O)c1nc(Cc2cc(Cl)ccc2OCc2c(F)ccc(F)c2F)cs1 [Example 88, Sodium 4-[(5-chloro-2-{[(2,3,6-trifluorophenyl)methyl]-oxy}phenyl)methyl]-1,3-thiazole-2-carboxylate], which IC50 is on record?
A: ≤ 1000 nM

Q: O=C(O)c1nc(Cc2cc(Cl)ccc2OCc2cc(F)c(F)cc2F)cs1 [Example 89, Sodium 4-[(5-chloro-2-{[(2,4,5-trifluorophenyl)methyl]-oxy}phenyl)methyl]-1,3-thiazole-2-carboxylate] was tested. Which IC50 did it give?
A: ≤ 31.6 nM

Q: NC(=O)c1csc(Cc2cc(Cl)ccc2OCc2ccccc2)n1 [Example 90, 2-({5-Chloro-2-[(phenylmethyl)oxy]phenyl}methyl)-1,3-thiazole-4-carboxamide] was tested. Which IC50 did it give?
A: ≤ 1000 nM

Q: O=C(NS(=O)(=O)c1ccccc1)c1csc(Cc2cc(Cl)ccc2OCc2ccccc2)n1 [Example 100, 2-({5-Chloro-2-[(phenylmethyl)oxy]phenyl}methyl)-N-(phenylsulfonyl)-1,3-thiazole-4-carboxamide] was tested. Which IC50 did it give?
A: ≤ 31.6 nM

Q: Clc1ccc(OCc2ccccc2)c(Cc2nc(-c3nnn[nH]3)cs2)c1 [Example 109, 5-[2-({5-Chloro-2-[(phenylmethyl)oxy]phenyl}methyl)-1,3-thiazol-4-yl]-1H-tetrazole] was tested. Which IC50 did it give?
A: ≤ 31.6 nM

Q: O=C1CN(Cc2ccc(NC(=O)c3csc(Cc4cc(Cl)ccc4OCc4ccccc4)n3)cc2)CCN1 [Example 122, 2-({5-Chloro-2-[(phenylmethyl)oxy]phenyl}-methyl)-N-{4-[(3-oxo-1-piperazinyl)methyl]phenyl}-1,3-thiazole-4-carboxamidehydrochloride] was tested. Which IC50 did it give?
A: ≤ 31.6 nM

Q: CC(C)COc1ccc(Cl)cc1Cc1nc(-c2nc3ccc(CN4CCCC4)cc3[nH]2)cs1 [Example 123, 2-[2-({5-Chloro-2-[(2-methylpropyl)oxy]phenyl}-methyl)-1,3-thiazol-4-yl]-5-(1-pyrrolidinylmethyl)-1H-benzimidazole hydrochloride] was tested. Which IC50 did it give?
A: ≤ 31.6 nM

Q: For Clc1ccc(OCc2ccccc2)c(Cc2nc(-c3nc4ccc(Cl)nc4[nH]3)cs2)c1 [Example 138, 5-Chloro-2-[2-({5-chloro-2-[(phenylmethyl)oxy]phenyl}methyl)-1,3-thiazol-4-yl]-1H-imidazo[4,5-b]pyridinehydrochloride], which IC50 is on record?
A: ≤ 31.6 nM

Q: How did the IC50 turn out when Clc1ccc(OCc2ccccc2)c(Cc2nc(-c3nnc[nH]3)cs2)c1 [Example 156, 3-[2-({5-Chloro-2-[(phenylmethyl)oxy]phenyl}methyl)-1,3-thiazol-4-yl]-1H-1,2,4-triazole] was run?
A: ≤ 1000 nM

Q: CC(C)COc1ccc(Cl)cc1Cc1nc(-c2nnc[nH]2)cs1 [Example 157, 3-[2-({5-Chloro-2-[(2-methyl-propyl)oxy]-phenyl}methyl)-1,3-thiazol-4-yl]-1H-1,2,4-triazole] was tested. Which IC50 did it give?
A: ≤ 1000 nM

Q: CC(C)(C)OC(=O)Nc1coc(Cc2cc(Cl)ccc2OCc2ccccc2)n1 [Example 161, 1,1-Dimethylethyl [2-({5-chloro-2-[(phenylmethyl)oxy]phenyl}methyl)-1,3-oxazol-4-yl]carbamate] was tested. Which IC50 did it give?
A: > 1000 nM

Q: For CC(C)COc1ccc(Cl)cc1Cc1nc(-c2nc3ccccc3[nH]2)co1 [Example 162, 2-[2-({5-Chloro-2-[(2-methylpropyl)oxy]phenyl}methyl)-1,3-oxazol-4-yl]-1H-benzimidazole hydrochloride], which IC50 is on record?
A: ≤ 31.6 nM

Q: With CC(C)COc1ccc(Cl)cc1Cc1nc(-c2nc3cc(N4CCN(C)CC4)ccc3[nH]2)co1 [Example 163, 2-[2-({5-Chloro-2-[(2-methylpropyl)oxy]phenyl}methyl)-1,3-oxazol-4-yl]-5-(4-methyl-1-piperazinyl)-1H-benzimidazoletrihydrochloride] as the compound, how does the IC50 read?
A: ≤ 31.6 nM
